The text below walks through data of patent US20230390273A1, “4-PHENYL-TETRAHYDROPYRIDINE DERIVATIVES FOR TREATING HEARING DISEASES” (CILCARE DEV, priority 2021, published 2023).

This test deals with male CBA/CaJ mice. Kind of test: ABR Wave I amplitude after noise-induced temporary hearing loss (Example 8). Type of test: in vivo. On the procedure: Twelve male CBA/CaJ mice were selected and evenly distributed to treatment and control groups, each group comprising 4 mice at the end of the study. Randomization was performed using the ABR threshold in the left ear at 16 kHz as a criterium. The “sham” group consists in mice (n=4) that received neither noise exposure nor trans-tympanic injection. The “Traumatized” group consists in mice (n=4) that received noise exposure only. The “traumatized paliroden” group consists in mice (n=4) that received noise exposure and trans-tympanic injections of a composition comprising paliroden (fumarate salt), corresponding to composition 4P described in Example 2.
All animals (except sham group) received a bilateral noise exposure at a noise band of 8-16 kHz at 95 dB SPL RMS during 2 hours (from time T0 to time T0+2 hours) in awake conditions.
Five microliters of a composition comprising paliroden as active agent were administered once in both ears of each mice of the treatment groups (5 μL per ear) via trans-tympanic administration by injection between the eardrum and the round window by means of a needle which crosses the eardrum, 24 hours post noise exposure, under isoflurane anesthesia. […]

Structures are written as SMILES. Where a name gives a salt, the structure may show the parent alone.

On to `FC(F)(F)c1cccc(C2=CCN(CCc3ccc(-c4ccccc4)cc3)CC2)c1` [paliroden (fumarate salt), 1-[2-(4-biphenylyl)ethyl]-4-(3-trifluoromethylphenyl)-1,2,3,6-tetrahydropyridine], for which the “Recovery of the ABR Wave I amplitudes” value (5 weeks post-noise, 16, 25, 32, 40, 45 kHz, paliroden 50 μg/ear one day post-noise) is “complete recovery”. For the setting “25, 32, 40 and 45 kHz, p values <0.001”, the “ABR Wave I amplitude recovery in comparison to traumatized untreated mice, subset analysis” value is recorded as “statistically significant”.
